Data reported in patent US5795905A, “CRF receptor antagonists and methods relating thereto” (Neurocrine Biosciences, Inc., priority 1995, dated 1998).

Each compound was assayed against T1, human CRF receptors (Homo sapiens, UniProt P34998) (assay: standard radioligand binding assay: displacement of radiolabeled CRF ligand from the CRF receptor). Settings: Table 7 title: Ki ≤ 250 nM; cells stably transfected with human CRF receptors; [125I]tyrosine-ovine CRF ~200 pM; 2 hours at 22° C.
T1 construct: expressed in transfected cells
T1 sequence (P34998 24-415): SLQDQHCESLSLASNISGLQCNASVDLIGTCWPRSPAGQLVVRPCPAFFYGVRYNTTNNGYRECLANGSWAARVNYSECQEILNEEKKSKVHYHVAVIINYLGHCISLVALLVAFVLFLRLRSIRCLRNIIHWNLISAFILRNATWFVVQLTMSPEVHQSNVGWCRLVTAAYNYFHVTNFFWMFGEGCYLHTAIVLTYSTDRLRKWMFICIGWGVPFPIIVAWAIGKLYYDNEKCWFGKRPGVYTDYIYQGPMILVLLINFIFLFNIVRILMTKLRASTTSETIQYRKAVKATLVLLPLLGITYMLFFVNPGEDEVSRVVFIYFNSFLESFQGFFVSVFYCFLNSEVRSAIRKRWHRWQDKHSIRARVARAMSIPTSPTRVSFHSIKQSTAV
Description: The effectiveness of a compound as a CRF receptor antagonist may be determined by various assay methods. Suitable CRF antagonists of this invention are capable of inhibiting the specific binding of CRF to its receptor and antagonizing activities associated with CRF. A compound of structures I through VI may be assessed for activity as a CRF antagonist by one or more generally accepted assays for this purpose, including (but not limited to) the assays disclosed by DeSouza et al. (J. Neuroscience 7:88, 1987) and Battaglia et al. (Synapse 1:572, 1987). […] CRF receptor affinity may be determined by binding studies that measure the ability of a compound to inhibit the binding of a radiolabeled CRF (e.g., [^125 I]tyrosine-CFR) to its receptor (e.g. receptors prepared from rat cerebral cortex membranes). The radioligand binding assay described by DeSouza et al. (supra, 1987) provides an assay for determining a compound's affinity for the CRF receptor. Such activity is typically calculated from the IC50 as the concentration of a compound necessary to displace 50% of the radiolabeled ligand from the receptor, and is reported as a "Ki " value calculated by the following equation: [formula] where L=radioligand and KD =affinity of radioligand for receptor (Cheng and Prusoff, Biochem. Pharmacol. 22:3099, 1973).
Compounds were evaluated for binding activity to the CRF receptor by a standard radioligand binding assay as generally described by DeSouza et al. (J. Neurosci. 7:88-100, 1987). By utilizing various radiolabeled CRF ligands, the assay may be used to evaluate the binding activity of the compounds of the present invention with any CRF receptor subtype. Briefly, the binding assay involves the displacement of a radiolabeled CRF ligand from the CRF receptor.
More specifically, the binding assay was performed in 1.5 ml Eppendorf tubes using approximately 1×10^6 cells per tube stably transfected with human CRF receptors. Each tube received about 0.1 ml of assay buffer (e.g., Dulbecco's phosphate buffered saline, 10 mM magnesium chloride, 20 μM bacitracin) with or without unlabeled sauvagine, urotensin I or CRF (final concentration, 1 μM) to determine nonspecific binding, 0.1 ml of [^125 ] tyrosine--ovine CRF (final concentration ~200 pM or approximately the KD as determined by Scatchard analysis) and 0.1 ml of a membrane suspension of cells containing the CRF receptor. The mixture was incubated for 2 hours at 22° C. followed by the separation of the bound and free radioligand by centrifugation. Following two washes of the pellets, the tubes were cut just above the pellet and monitored in a gamma counter for radioactivity at approximately 80% efficiency. All radioligand binding data was analyzed using the non-linear least-square curve-fitting program LIGAND of Munson and Rodbard (Anal. Biochem. 107:220, […]).
Binding activity corresponds to the concentration (nM) of the compound necessary to displace 50% of the radiolabeled ligand from the receptor.

Ki, ≤ 250 nM:
CCCN(c1ncc(C)c(-c2ccc(Cl)cc2)n1)C(C1CC1)C1CC1 [II-7]
CCCN(c1nccc(-c2c(Cl)cc(Cl)cc2Cl)n1)C(C1CC1)C1CC1 [II-11, 2-(N-dicyclopropylmethyl-N-propylamino)-4-(2',4',6'-trichlorophenyl)-pyrimidine]
CCCN(c1ncc(C)c(-c2ccc(Br)cc2)n1)C(C1CC1)C1CC1 [II-16, 2-(N-dicyclopropylmethyl-N-propylamino)-4-(4'-bromophenyl)-5-methylpyrimidine]
CCCN(c1nccc(-c2c(OC)cc(OC)cc2OC)n1)C(C1CC1)C1CC1 [II-22, 2-(N-dicyclopropylmethyl-N-propylamino)-4-(2',4',6'-trimethoxyphenyl)pyrimidine]
CCCN(c1nccc(-c2c(OC)cccc2OC)n1)C(C1CC1)C1CC1 [II-23, 2-(N-dicyclopropylmethyl-N-propyl)-4-(2',6'-dimethoxyphenyl)pyrimidine]
CCCN(c1nccc(-c2c(C)cc(C)cc2C)n1)C(C1CC1)C1CC1 [II-24]
CCCN(c1ncc(C)c(-c2c(OC)cc(OC)cc2OC)n1)C(C1CC1)C1CC1 [II-25]
CCCN(c1ncc(C)c(-c2ccc(Cl)cc2OC)n1)C(C1CC1)C1CC1 [II-32]
CCCN(c1nccc(-c2c(OC)cc(Cl)cc2OC)n1)C(C1CC1)C1CC1 [II-35]
CCCN(c1ncc(C)c(-c2ccc(OC)cc2OC)n1)C(C1CC1)C1CC1 [II-39]
CCCN(c1nccc(-c2ccc(OC)cc2C)n1)C(C1CC1)C1CC1 [II-43]
CCCN(c1nc(N)nc(-c2c(Cl)cc(Cl)cc2Cl)n1)C(C1CC1)C1CC1 [IV-2, 2-(2',4',6'-trichlorophenyl)-4-(N-dicyclopropylmethyl-N-propylamino)-6-aminotriazine]
CCCN(c1nc(N)nc(-c2ccc(Cl)cc2Cl)n1)C(C1CC1)C1CC1 [IV-7]
CCCN(c1ncnc(-c2ccc(Cl)cc2Cl)n1)C(C1CC1)C1CC1 [IV-8, 2-(N-dicyclopropylmethyl-N-propylamino)-4-(2',4'-dichlorophenyl)triazine]
